Test results: US20090105149A1, “Compounds comprising lpa” (ENKAM PHARMACEUTICALS A/S, priority 2003, published 2009)

What was measured:
rats = assay: Morris Water Maze test; assay type: in vivo, rat
Procedure: In the Morris Water Maze test, rats are evaluated in the spatial training task to find a hidden platform in order to escape swimming in the water.
In the Morris Water Maze study, rats were pre-trained to locate a hidden platform by daily training for 120 seconds for five days (days−4 to 0) before the experiment. On days 1 and 2, rats were given 3 consecutive trials in which the platform location remained constant. The time during which the rats were able to locate the platform was recorded within a maximum test-period of 120 seconds. The rats received a 5 μl injection of the FGLd peptide (5 μg), the control peptide (5 μg), or the vehicle solution immediately after each training trial on days 1 and 2.
The animals were tested 24 hours (day 3) and 7 days (day 10) after training. Fourteen days after training (day 17), the location of the platform was changed. Rats were trained to find a new location of the platform in three consecutive trials (“reversal learning”). In total, 48 animals were evaluated. Animals were divided into three groups consisting of 12-18 rats per treatment group.

[1] = tested on: dissociated hippocampal neurons; assay: OGD, FM 1-43 release in dissociated hippocampal cell cultures; assay type: cell-based, rat
Source text: In the present study it was investigated the effect of the FGL peptide on synaptic plasticity, neuronal function and vulnerability following oxygen and glucose deprivation (OGD) in organotypic hippocampal neuronal slice cultures (OHSC) from 7-day-old Wistar rats according to method of Stoppini et al. (1991) Neurosci Methods. 37:173-82 and primary cultures of dissociated hippocampal neurons from 1-day-old rats according to method of Maar et al. (1997) J Neurosci Res. 47:163-72. Primary cell cultures were maintained for 11-12 days and OHSC for 12-14 days prior to adding FGLd.
The primary cell cultures and OHSC were exposed to OGD for 10 and 20 minutes. Following OGD, the cultures were again supplied with oxygen and glucose and analysed at 1, 4 or 24 hour time point after introduction of OGD exposure. FGLd (or the control peptide FGLc) was added 24 hr before, immediately, or 1 hr or 24 hr after OGD. When administered prior to OGD, FGLd was removed from the medium when introducing OGD. In some cases, the slice cultures were treated with FGLd only at 4 hr after OGD. In addition, the FGFR inhibitor, SU5402 (25 μM), was added together with FGLd in some of the set-ups.
In hippocampal neuronal cultures, FM 1-43 staining was used to evaluate pre-synaptic function (described above). Cell viability in both primary cell cultures and OHSC was measured using the […] [3-(4,5-dimethylthiazol-2-yl)-2,5-diphenyltetrazolium bromide] assay according to Malich et al, (1997) Toxicology. 124:179-92. In, addition, cell viability in OHSC was measured using propidium iodide (PI) staining according to Laake et al. (1999) Brain Res Brain Res Protoc. 4:173-84.

adult male Wistar rats = assay: Contextual Fear Conditioning test; assay type: in vivo, rat; settings: 5 μg immediately after training
Source text: In the Contextual Fear Conditioning test, rats experienced inescapable shocks when exposed to a *new environment, which results in the development of a conditioned fear response, consisting of a characteristic immobility or ‘freezing response’, when subsequently re-exposed to the same environment.
The rats were handled for 120 seconds every day for 3 days preceding the first day of the experiment. On day 1 (training), the rats received a 1-second shock (unconditioned stimuli) each minute for two minutes. Animals were injected immediately after training with 5 μl FGLd (5 μg), the control peptide (5 μg) or the vehicle. Each treatment group consisted of 11-14 rats. In total, 39 animals were evaluated. Animals were tested on days 2, 7 and 30 by placing them in the chamber used for conditioning, but in the absence of a shock, for 8 minutes. Each rat was rated as either “freezing” or “active”, every 2 seconds, using a time-sampling procedure.

hippocampal neurons = assay: Neurite outgrowth, hippocampal neurons; assay type: cell-based, rat; settings: 24 h
Procedure: The cultures were subsequently immunostained for tyrosine hydroxylase. Hippocampal neurons and CGN were plated at a density of 10,000 cells/cm^2 on 8-well permanox chamber slides and incubated for 24 hours in the presence of various concentrations of FGLd. Subsequently the neurons were immunostained for GAP-43. Results from at least five independent experiments for each neuronal culture are shown as percentage ±SEM with the untreated controls set at 100%. *p<0.05, **p<0.01, ***p<0.001 when compared to the controls.
Results from at least four independent experiments are shown as percentage SEM with untreated controls set at 100%. **p<0.01 when compared to the controls.
Peptide solutions without or with inhibitors of various signal transduction pathways were added to a total volume of 300 μl/cm^2, and the slides were incubated at 37° C. After 24 hours, the neurons were fixed with 4% (v/v) formaldehyde for 20 minutes and thereafter immunostained using primary rabbit antibodies against GAP-43 and Alexa Fluor secondary goat anti-rabbit antibodies. Images of at least 200 neurons for each group in each individual experiment were obtained systematically by using computer assisted fluorescence microscopy as previously described (Rønn et al., 2000 op. cit.). Briefly, a Nikon Diaphot inverted microscope with a Nikon Plan 20× objective (Nikon, Tokyo, Japan) coupled to a video camera (Grundig Electronics, Germany) was used for recordings. The same software package as described above for the dopaminergic neurite outgrowth assay was used to process the recorded images.

Substance: FGLd: MAP-type dendrimer of FGL; dendrimeric tetramer of the FGL peptide (EVYVVAENQQGKSKA)
- time to locate the platform (rats; day 2, 5 μg after training, untreated rats 93.0 s): 65.8 s
- time to locate the platform (reversal learning) (rats; day 17): statistically significant
- rate of FM 1-43 release after OGD ([1]; treated 24 hours before or immediately after OGD): the OGD-induced decrease in the rate of FM 1-43 release was diminished
- rate of pre-synaptic vesicle release (FM 1-43 destaining) upon high potassium stimulation ([1]; treatment without OGD, control 0.04): 0.06 s⁻¹
- percentage of freezing time (adult male Wistar rats; day 2 after conditioning, control 50.5%): 73.5%
- percentage of freezing time (adult male Wistar rats; day 7 after conditioning, control 30.0%): 60.3%
- neurite length, hippocampal neurons, plateau-like level (hippocampal neurons; 0.04 up to 20 μg/ml, untreated control = 100%): approximately 150%
- Effect on Neurite Length (Percent Increase vs. Control) (hippocampal neurons; HN E19, 3 μg/mL): 65%
- Effect on Neurite Length (Percent Increase vs. Control) (hippocampal neurons; HN E19, 9 μg/mL): 51%
- Effect on Neurite Length (Percent Increase vs. Control) (hippocampal neurons; HN E19, 27 μg/mL): 69%
- Effect on Neurite Length (Percent Increase vs. Control) (hippocampal neurons; HN Newborn, 0.04 μg/mL): 38%
- Effect on Neurite Length (Percent Increase vs. Control) (hippocampal neurons; HN Newborn, 5 μg/mL): 45%
